Laboratory results taken from patent US8314079B2, “Hyaluronic acid oligosaccharide fractions and drugs containing the same” (Seikagaku Corporation, priority 2000, dated 2012).

Columns and labels:
HSF1 = experiment: Phosphorylation (activation) of HSF1 in heat-shocked K562 cells, band shift 66 kDa to 81 kDa by SDS-PAGE/Western blotting; type: cell-based, human; conditions: for shift of a band of 66 kDa (HSF1 not phosphorylated) to a band of 81 kDa (phosphorylated HSF1): Experiment 1, 1, 10 or 100 ng/mL, heat shock 42° C., 20 minutes; for amount of HSF1 per se / band shift of HSF1 (66 kDa to 81 kDa): Experiment 2 (and comparative Experiment 3), 100 ng/mL, heat shock 43° C.
Excerpt: It is known that HSF1 (heat shock factor 1) protein is a transcription factor of Hsp70 (J. Biol. Chem., 271, pp. 3355-3358, 1996). Moreover, the HSF1 protein can be activated by phosphorylation, and this phosphorylation can be detected based on band shift in SDS-polyacrylamide gel electrophoresis (SDS-PAGE) (apparent molecular weight shifts from about 66 kDa to about 81 kDa). By utilizing this fact, the HA oligosaccharides of various sizes were allowed to act on the K562 cells given with stress, and the aforementioned band shift was detected to investigate the degree of the phosphorylation (activation) of HSF1.
HA4, ΔHA4, HA6, HA8, HA2-18 and HA 8-14 were each added to a medium containing the aforementioned cells at a concentration of 1, 10 or 100 ng/mL. Then, the cells were immediately transferred into an environment at 42° C. to be given with heat shock and incubated for 20 minutes. After the incubation, the cells were collected by centrifugation, and SDS-PAGE (gel concentration: 10%) was performed. Thereafter, Western blotting was performed by using anti-HSF1 monoclonal antibodies (produced by Stressgene) as primary antibodies and goat anti-mouse IgG monoclonal antibodies (produced by Jackson Lab) as secondary antibodies to detect the shift of a band of 66 kDa (HSF1 not phosphorylated) to a band of 81 kDa (phosphorylated HSF1).
In order to confirm the reproducibility of Experiment 1, the band shift was detected in the same manner as in Experiment 1 by using HA4, ΔHA4, HA8 and HA84 except that HA was added in a single kind of amount of 100 ng/mL, and the heat shock was given at 43° C. In FIG. 41, the first lane from the left indicates the result obtained with an extract of cells incubated at 37° C. (no addition of HA oligosaccharide), the second lane indicates the result obtained with an extract of cells subjected to 43° C. (no addition of HA oligosaccharide), and the first lane from the right indicates the result of detection of HSF1 (derived from bacteria) as a standard.
In order to investigate whether the action observed in Experiment 2 was specific to the saccharide chain basic structure of HA oligosaccharides, the following comparative experiment was performed by using chondroitin oligosaccharides. […] Therefore, it can be said that Ch is a substance extremely structurally analogous to HA, and the same shall also apply to the oligosaccharides thereof. • Saturated Ch tetrasaccharide (Ch4) • GlcAβ1-3GalNAcβ1-4GlcAβ1-3GalNAc • Saturated Ch hexasaccharide (Ch6) • GlcAβ1-3GalNAcβ1-4GlcAβ1-3GalNAcβ1-4GlcAβ1-3GalNAc • Saturated Ch octasaccharide (Ch8) • GlcAβ1-3GalNAcβ1-4GlcAβ1-3GalNAcβ1-4GlcAβ1-3GalNAcβ1-4GlcAβ1-3GalNAc
The same experiment as Experiment 2 was performed by using these oligosaccharides.

Hsp72 = experiment: Expression of Hsp72 in K562 cells given heat shock, Western blotting; type: cell-based, human
Protocol: HA2, ΔHA4, HA6, HA84 and L4L4 were each added to a medium containing the aforementioned cells (37° C.) at a concentration of 1, 10 or 100 ng/mL. Then, the cells were immediately transferred into an environment at 43° C. to be given with heat shock and incubated for 20 minutes. Then, the cells were returned to 37° C., then further incubated for 2 hours and collected by centrifugation, and SDS-PAGE was performed in the same manner as in <1> mentioned above. Thereafter, Western blotting was performed by using anti-Hsp72 monoclonal antibodies (produced by Amersham) as primary antibodies and goat anti-rabbit IgG monoclonal antibodies (produced by Jackson Lab) as secondary antibodies to detect Hsp72. Hsp72 is one of the members of Hsp70 family and is the most typical one, and it is known that its expression is induced and promoted by stress.
The leftmost lane in FIG. 42a indicates the results of the detection of Hsp72 in a similar manner with giving no heat shock (37° C.) and addition of no test substance, and the rightmost lane indicates the results of detection of standard Hsp72 (Hsp72 derived from bacteria, bHsp72) in a similar manner.

Structure (SMILES) | shift of a band of 66 kDa (HSF1 not phosphorylated) to a band of 81 kDa (phosphorylated HSF1) (HSF1) | amount of HSF1 per se (HSF1) | band shift of HSF1 (66 kDa to 81 kDa) (HSF1) | expression of Hsp72 (Hsp72; K562 cells not given heat shock) | expression of Hsp72 (Hsp72; K562 cells, 1, 10 or 100 ng/mL, heat shock 43° C. 20 minutes, then 37° C. 2 hours)
CC(=O)N[C@H]1[C@H](O[C@H]2[C@H](O)[C@@H](O)[C@H](O[C@H]3[C@H](O)[C@@H](CO)O[C@@H](O[C@H]4[C@H](O)[C@@H](O)[C@H](O[C@H]5[C@H](O)[C@@H](CO)OC(O)[C@@H]5NC(C)=O)O[C@@H]4C(=O)O)[C@@H]3NC(C)=O)O[C@@H]2C(=O)O)O[C@H](CO)[C@@H](O)[C@@H]1O[C@@H]1O[C@H](C(=O)O)[C@@H](O)[C@H](O)[C@H]1O.[Na].[Na].[Na] (stereo partly drawn) [HA6, sodium β-D-glucopyranosyluronate-[(1→3)-2-acetamido-2-deoxy-β-D-glucopyranosyl-(1→4)-(sodium β-D-glucopyranosyluronate)]2-(1→3)-2-acetamido-2-deoxy-D-glucopyranose] | shift to the 81 kDa band was observed depending on the amount of the added HA oligosaccharide | – | – | – | –
CC(=O)N[C@H]1[C@H](O[C@H]2[C@H](O)[C@@H](O)[C@H](O[C@H]3[C@H](O)[C@@H](CO)O[C@@H](O[C@H]4[C@H](O)[C@@H](O)[C@H](O[C@H]5[C@H](O)[C@@H](CO)O[C@@H](O[C@H]6[C@H](O)[C@@H](O)[C@H](O[C@H]7[C@H](O)[C@@H](CO)OC(O)[C@@H]7NC(C)=O)O[C@@H]6C(=O)O)[C@@H]5NC(C)=O)O[C@@H]4C(=O)O)[C@@H]3NC(C)=O)O[C@@H]2C(=O)O)O[C@H](CO)[C@@H](O)[C@@H]1O[C@@H]1O[C@H](C(=O)O)[C@@H](O)[C@H](O)[C@H]1O (stereo partly drawn) [HA8, sodium β-D-glucopyranosyluronate-[(1→3)-2-acetamido-2-deoxy-β-D-glucopyranosyl-(1→4)-(sodium β-D-glucopyranosyluronate)]3-(1→3)-2-acetamido-2-deoxy-D-glucopyranose] | inhibition of the band shift was observed | increase of the amount of HSF1 of 66 kDa was observed | band shift to the band of 81 kDa was not observed | – | –
CC(=O)NC1C(O)OC(CO)[C@@H](O)C1O[C@@H]1OC(C(=O)[O-])[C@@H](O[C@@H]2OC(CO)[C@@H](O)C(O[C@@H]3OC(C(=O)[O-])=CC(O)C3O)C2NC(C)=O)C(O)C1O.[Na+].[Na+] (stereo partly drawn) [ΔHA4, ΔGlcAβ1-3GlcNAcβ1-4GlcAβ1-3GlcNAc] | shift to the 81 kDa band was observed depending on the amount of the added HA oligosaccharide | amounts of both HSF1 of 66 kDa and 81 kDa per se were also increased | band shift was observed | enhancement of the expression of Hsp72 by ΔHA4 was not observed | particularly strongly enhanced
